{"source": "patent US20240226049A1", "about": "“METHODS OF TREATMENT USING BEMPEDOIC ACID” (Esperion Therapeutics, Inc., priority 2023, published 2024)", "key": {"[1]": {"system": "statin-intolerant patients with or at high risk of CVD", "format": "in vivo", "description": "The CLEAR OUTCOMES trial was a randomized, placebo-controlled, double-blind trial that enrolled patients at 1250 sites in 32 countries. An independent Data Monitoring Committee reviewed safety and efficacy data during the trial.\nPatients 18 to 85 years of age were eligible for enrollment if they met either of two criteria for increased cardiovascular risk, a prior cardiovascular event (secondary prevention) or clinical features that placed them at high risk for a cardiovascular event (primary prevention). (Nicholls S. Lincoff A M, Bays H E, et al. Rationale and design of the CLEAR-outcomes trial: Evaluating the effect of bempedoic acid on cardiovascular events in patients with statin intolerance. Am Heart J. 2021 May; 235:104-112) All patients provided written informed consent. Patients had to report statin intolerance due to an adverse effect that started or increased during statin therapy and resolved or improved after statin therapy was discontinued. Patients could be enrolled if they tolerated a very low average daily statin dose (e.g., an average daily dose of rosuvastatin <5 mg, atorvastatin <10 mg, simvastatin <10 mg, lovastatin <20 mg, pravastatin <40 mg, fluvastatin <40 mg, or pitavastatin <2 mg). Other lipid-lowering therapies were permitted, including ezetimibe, niacin, bile acid resins, fibrates, and/or proprotein convertase subtilisin kexin type 9 (PCSK9) inhibitors. Full inclusion and exclusion criteria are provided in Nicholls et al. (Am Heart J. 2021).\nEligible patients entered a 4-week run-in period during which patients were treated with single-blind placebo. If patients were intolerant to placebo treatment or if adherence was <80% by tablet count, they were not eligible for randomization. Patients who successfully completed the run-in period were randomly assigned in a 1:1 ratio to receive bempedoic acid at an oral dose of 180 mg or matching placebo, administered daily. Beginning 6 months after enrollment, the central laboratory notified the investigator if the patient's LDL-cholesterol level was ≥25% higher than baseline. These patients were counseled on healthy dietary guidelines and reminded to take all lipid-regulating medications. If repeat testing confirmed that LDL-cholesterol value met the threshold criteria, the provider could adjust the lipid-lowering treatment regimen per standard of care and local guidelines.\nThe primary end point was the first occurrence of a composite of death from cardiovascular causes, nonfatal myocardial infarction (MI), nonfatal stroke, or coronary revascularization. The first key secondary end point was time to the first occurrence of the composite of cardiovascular death, nonfatal stroke, or MI. Further key secondary end points included time to first occurrence of each of the following outcomes tested in hierarchical order, fatal or nonfatal MI, coronary revascularization, fatal or nonfatal stroke, death from cardiovascular causes, and all-cause mortality.\nThis was an event-driven trial designed to provide at least 90% power to detect a 15% relative risk reduction for the primary composite end point at an overall two-sided significance level of 0.05. The trial required a minimum of 1620 primary composite events with ≥24 months of follow-up for all patients and at least 810 first key secondary end points. The average treatment duration was estimated to be 42 months and a lost-to-follow-up rate of 1% per year. Assuming a 3.59% annual event rate in the placebo group, enrollment of 12,600 patients was required, subsequently amended to 14,000. There were no interim efficacy analyses. A hierarchical approach was prespecified to evaluate sequentially each of the six key secondary efficacy end points with statistical significance at each step required to test the next hypothesis, thereby preserving the study-wise Type I error rate at 5%. All analyses were based on the intent-to-treat principle. […]"}, "[2]": {"system": "statin-intolerant patients with or at high risk of CVD", "format": "in vivo", "experimental": "CLEAR OUTCOMES (described in Example 1) was a randomized double-blind trial comparing orally administered bempedoic acid 180 mg once daily to placebo in statin-intolerant patients with or at high risk of CVD and an LDL-C ≥2.59 mmol/L. This prespecified analysis reports the time to event analysis of bempedoic acid versus placebo on the primary endpoint (MACE-4; composite of CV death, nonfatal MI, nonfatal stroke, or coronary revascularization) and key secondary end-point (MACE-3; death from cardiovascular causes, nonfatal myocardial infarction, nonfatal stroke) by baseline glycaemia status (diabetes, prediabetes, and normoglycaemia), and impact on HbA1c at 1 and 3 years and on NOD for subjects without diabetes at baseline.", "remark": "listed apart in the source"}, "[3]": {"details": "full population, 180 mg oral daily, N = 6992"}, "[4]": {"details": "baseline diabetes, median 3.4 year follow up"}, "[5]": {"details": "baseline normoglycaemia, p<0.0001"}, "[6]": {"details": "baseline normoglycemia, median 3.4 year follow up"}, "[7]": {"details": "baseline pre-diabetes, median 3.4 year follow up"}, "[8]": {"details": "baseline pre-diabetes, p<0.0001"}, "[9]": {"details": "diabetes, primary prevention CVD risk group"}, "[10]": {"details": "diabetes, secondary prevention CVD risk group"}, "[11]": {"details": "vs placebo, baseline normoglycemia"}, "[12]": {"details": "vs placebo, baseline pre-diabetes"}, "[13]": {"details": "vs placebo, diabetes, primary prevention"}, "[14]": {"details": "vs placebo, diabetes, secondary prevention"}, "[15]": {"details": "vs placebo, history of one or more cardiovascular events"}, "[16]": {"details": "vs placebo, no prior history of cardiovascular events"}}, "data": [{"smiles": "CC(C)(CCCCCC(O)CCCCCC(C)(C)C(=O)O)C(=O)O", "note": "[Bempedoic Acid, Bempedoic acid]", "values": [{"measurement": "effect on other key secondary end points (time to first occurrence of stroke, death from cardiovascular causes, all-cause mortality)", "setting": "[1]; compared with placebo, full population", "value": "no significant effects"}, {"measurement": "3-component MACE, % of patients", "setting": "[1]; [3]", "value": "(8.2) %"}, {"measurement": "Coronary revascularization, % of patients", "setting": "[1]; [3]", "value": "(6.2) %"}, {"measurement": "Fatal and non-fatal MI, % of patients", "setting": "[1]; [3]", "value": "(3.7) %"}, {"measurement": "Primary efficacy endpoint (MACE-4), % of patients", "setting": "[1]; [3]", "value": "(11.7) %"}, {"measurement": "New-onset type 2 diabetes mellitus, Hazard Ratio", "setting": "[1]; human, in vivo", "value": 0.95}, {"measurement": "reduction in risk of non-fatal myocardial infarction", "setting": "[1]; vs placebo, 180 mg oral daily", "value": "about 27%"}, {"measurement": "3-component MACE, Hazard Ratio", "setting": "[1]; vs placebo, full population", "value": 0.85}, {"measurement": "5 component MACE, Hazard Ratio", "setting": "[1]; vs placebo, full population", "value": 0.86}, {"measurement": "All-cause mortality, nonfatal MI, nonfatal stroke, or coronary revascularization, Hazard Ratio", "setting": "[1]; vs placebo, full population", "value": 0.89}, {"measurement": "Coronary revascularization, Hazard Ratio", "setting": "[1]; vs placebo, full population", "value": 0.81}, {"measurement": "Fatal and non-fatal MI, Hazard Ratio", "setting": "[1]; vs placebo, full population", "value": 0.77}, {"measurement": "Fatal and non-fatal stroke, Hazard Ratio", "setting": "[1]; vs placebo, full population", "value": 0.85}, {"measurement": "Fatal and nonfatal non-hemorrhagic stroke, Hazard Ratio", "setting": "[1]; vs placebo, full population", "value": 0.78}, {"measurement": "Hospitalization for unstable angina, Hazard Ratio", "setting": "[1]; vs placebo, full population", "value": 0.66}, {"measurement": "Non-fatal MI, Hazard Ratio", "setting": "[1]; vs placebo, full population", "value": 0.73}, {"measurement": "Non-fatal stroke, Hazard Ratio", "setting": "[1]; vs placebo, full population", "value": 0.82}, {"measurement": "Primary efficacy endpoint (MACE-4), Hazard Ratio", "setting": "[1]; vs placebo, full population", "value": 0.87}, {"measurement": "Time to First Adjudicated MACE-3, Diabetes, % of patients", "setting": "[2]; [4]", "value": 8.9, "unit": "%"}, {"measurement": "Time to First Adjudicated MACE-3, Diabetes, patients with event/patients", "setting": "[2]; [4]", "value": "279/3144"}, {"measurement": "Time to First Adjudicated MACE-4, Diabetes, % of patients", "setting": "[2]; [4]", "value": 11.9, "unit": "%"}, {"measurement": "Time to First Adjudicated MACE-4, Diabetes, patients with event/patients", "setting": "[2]; [4]", "value": "374/3144"}, {"measurement": "LDL-C reduction compared to placebo at month 6, patients with diabetes", "setting": "[2]; baseline diabetes, p<0.0001", "value": 21.2, "unit": "%"}, {"measurement": "LDL-C reduction compared to placebo at month 6 in absolute terms, patients with diabetes", "setting": "[2]; baseline diabetes, p<0.0001", "value": 0.73, "unit": "mmol/L"}, {"measurement": "LDL-C reduction compared to placebo at month 6, patients with normoglycaemia", "setting": "[2]; [5]", "value": 22.0, "unit": "%"}, {"measurement": "LDL-C reduction compared to placebo at month 6 in absolute terms, patients with normoglycaemia", "setting": "[2]; [5]", "value": 0.81, "unit": "mmol/L"}, {"measurement": "Time to First Adjudicated MACE-3, Normoglycemia, % of patients", "setting": "[2]; [6]", "value": 7.2, "unit": "%"}, {"measurement": "Time to First Adjudicated MACE-3, Normoglycemia, patients with event/patients", "setting": "[2]; [6]", "value": "67/937"}, {"measurement": "Time to First Adjudicated MACE-4, Normoglycemia, % of patients", "setting": "[2]; [6]", "value": 10.1, "unit": "%"}, {"measurement": "Time to First Adjudicated MACE-4, Normoglycemia, patients with event/patients", "setting": "[2]; [6]", "value": "95/937"}, {"measurement": "Time to First Adjudicated MACE-3, Pre-Diabetes, % of patients", "setting": "[2]; [7]", "value": 7.9, "unit": "%"}, {"measurement": "Time to First Adjudicated MACE-3, Pre-Diabetes, patients with event/patients", "setting": "[2]; [7]", "value": "229/2911"}, {"measurement": "Time to First Adjudicated MACE-4, Pre-Diabetes, % of patients", "setting": "[2]; [7]", "value": 12.0, "unit": "%"}, {"measurement": "Time to First Adjudicated MACE-4, Pre-Diabetes, patients with event/patients", "setting": "[2]; [7]", "value": "350/2911"}, {"measurement": "LDL-C reduction compared to placebo at month 6, patients with pre-diabetes", "setting": "[2]; [8]", "value": 20.7, "unit": "%"}, {"measurement": "LDL-C reduction compared to placebo at month 6 in absolute terms, patients with pre-diabetes", "setting": "[2]; [8]", "value": 0.76, "unit": "mmol/L"}, {"measurement": "Time to First Adjudicated MACE-3, Diabetes, Primary Prevention, % of patients", "setting": "[2]; [9]", "value": 4.9, "unit": "%"}, {"measurement": "Time to First Adjudicated MACE-3, Diabetes, Primary Prevention, patients with event/patients", "setting": "[2]; [9]", "value": "67/1369"}, {"measurement": "Time to First Adjudicated MACE-4, Diabetes, Primary Prevention, % of patients", "setting": "[2]; [9]", "value": 6.4, "unit": "%"}, {"measurement": "Time to First Adjudicated MACE-4, Diabetes, Primary Prevention, patients with event/patients", "setting": "[2]; [9]", "value": "87/1369"}, {"measurement": "Time to First Adjudicated MACE-3, Diabetes, Secondary Prevention, % of patients", "setting": "[2]; [10]", "value": 11.9, "unit": "%"}, {"measurement": "Time to First Adjudicated MACE-3, Diabetes, Secondary Prevention, patients with event/patients", "setting": "[2]; [10]", "value": "212/1775"}, {"measurement": "Time to First Adjudicated MACE-4, Diabetes, Secondary Prevention, % of patients", "setting": "[2]; [10]", "value": 16.2, "unit": "%"}, {"measurement": "Time to First Adjudicated MACE-4, Diabetes, Secondary Prevention, patients with event/patients", "setting": "[2]; [10]", "value": "287/1775"}, {"measurement": "reduction in risk of MACE (CV death, non-fatal MI or non-fatal stroke), adult with diabetes", "setting": "[2]; vs placebo, 180 mg oral daily", "value": "about 20%"}, {"measurement": "reduction in risk of MACE (CV death, non-fatal MI, non-fatal stroke or coronary revascularization), adult with diabetes", "setting": "[2]; vs placebo, 180 mg oral daily", "value": "about 17%"}, {"measurement": "Time to First Adjudicated MACE-3, Diabetes, HR", "setting": "[2]; vs placebo, baseline diabetes", "value": 0.80}, {"measurement": "Time to First Adjudicated MACE-4, Diabetes, HR", "setting": "[2]; vs placebo, baseline diabetes", "value": 0.83}, {"measurement": "Time to First Adjudicated MACE-3, Normoglycemia, HR", "setting": "[2]; [11]", "value": 0.96}, {"measurement": "Time to First Adjudicated MACE-4, Normoglycemia, HR", "setting": "[2]; [11]", "value": 0.84}, {"measurement": "Time to First Adjudicated MACE-3, Pre-Diabetes, HR", "setting": "[2]; [12]", "value": 0.92}, {"measurement": "Time to First Adjudicated MACE-4, Pre-Diabetes, HR", "setting": "[2]; [12]", "value": 0.94}, {"measurement": "Time to First Adjudicated MACE-3, Diabetes, Primary Prevention, HR", "setting": "[2]; [13]", "value": 0.65}, {"measurement": "Time to First Adjudicated MACE-4, Diabetes, Primary Prevention, HR", "setting": "[2]; [13]", "value": 0.70}, {"measurement": "Time to First Adjudicated MACE-3, Diabetes, Secondary Prevention, HR", "setting": "[2]; [14]", "value": 0.86}, {"measurement": "Time to First Adjudicated MACE-4, Diabetes, Secondary Prevention, HR", "setting": "[2]; [14]", "value": 0.87}, {"measurement": "reduction in risk of MACE (CV death, non-fatal MI or non-fatal stroke), adult with diabetes at risk for a secondary MACE", "setting": "[2]; [15]", "value": "at least 14%"}, {"measurement": "reduction in risk of MACE (CV death, non-fatal MI, non-fatal stroke or coronary revascularization), adult with diabetes at risk for a secondary MACE", "setting": "[2]; [15]", "value": "about 13%"}, {"measurement": "reduction in risk of MACE (CV death, non-fatal MI or non-fatal stroke), adult with diabetes at risk for a primary MACE", "setting": "[2]; [16]", "value": "about 35%"}, {"measurement": "reduction in risk of MACE (CV death, non-fatal MI, non-fatal stroke or coronary revascularization), adult with diabetes at risk for a primary MACE", "setting": "[2]; [16]", "value": "about 30%"}]}]}
